Structures are written as SMILES.

Common to all, as to assay type: in vivo
In one test the test system is Stellaria media. As to the kind of experiment: Herbicidal screen, post-emergence spray of seedlings in pots: Chickweed. Set-up: key to percentage increase in necrosis relative to the control: no detected effect at this concentration; a percentage increase in necrosis relative to the control of 0.1-50; b: a percentage increase in necrosis of 50-80; a percentage increase in necrosis of 80-100. As to conditions: assessed 10 days after treatment; for pest or weed control at 12.5 g/ha / pest or weed control at 25 g/ha / pest or weed control at 50 g/ha / pest or weed control at 100 g/ha: Stellaria media, post-emergence, 240 h, read-out: percentage increase in necrosis relative to the control. On the procedure: (§1) Compounds were screened at four concentrations (100, 50, 25 and 12.5 g/ha) against four weed species (Stellaria media—Chickweed; Abutilon theophrasti—velvetleaf; Amaranthus retroflexus—common amaranthus; Echinochloa crus-galli—Barnyard grass) and maize as a crop species. Seed were sown in 12.5 cm diameter pots (20 per pot for the weed species and 5 for maize). Seedlings were sprayed with 2 ml of compound two weeks after sowing, with 2 ml water used as the control. Each treatment was replicated three times. Plants were maintained at 20° C. and assessed 10 days after treatment. The assessment was based on the % plant in each pot showing growth. The data is presented in Table 1 in which d represents no detected effect at this concentration; c represents a percentage increase in necrosis relative to the control of 0.1-50; b represents a percentage increase in necrosis of 50-80; and a represents a percentage increase in necrosis of 80-100.

The test system of another test is Abutilon theophrasti. Put plainly: Herbicidal screen, post-emergence spray of seedlings in pots: velvetleaf. Set-up: key to percentage increase in necrosis relative to the control: no detected effect at this concentration; a percentage increase in necrosis relative to the control of 0.1-50; b: a percentage increase in necrosis of 50-80; a percentage increase in necrosis of 80-100. As to conditions: assessed 10 days after treatment; for pest or weed control at 12.5 g/ha / pest or weed control at 25 g/ha / pest or weed control at 50 g/ha / pest or weed control at 100 g/ha: Abutilon theophrasti, post-emergence, 240 h, read-out: percentage increase in necrosis relative to the control. The procedure:
as §1

The subject of a further test is Amaranthus retroflexus. Put plainly: Herbicidal screen, post-emergence spray of seedlings in pots: common amaranthus. Set-up: key to percentage increase in necrosis relative to the control: no detected effect at this concentration; a percentage increase in necrosis relative to the control of 0.1-50; b: a percentage increase in necrosis of 50-80; a percentage increase in necrosis of 80-100. As to conditions: assessed 10 days after treatment; for pest or weed control at 12.5 g/ha / pest or weed control at 25 g/ha / pest or weed control at 50 g/ha / pest or weed control at 100 g/ha: Amaranthus retroflexus, post-emergence, 240 h, read-out: percentage increase in necrosis relative to the control. On the procedure: as §1

The subject of the next test is Echinochloa crus-galli. Put plainly: Herbicidal screen, post-emergence spray of seedlings in pots: Barnyard grass. More on the design: key to percentage increase in necrosis relative to the control: no detected effect at this concentration; a percentage increase in necrosis relative to the control of 0.1-50; b: a percentage increase in necrosis of 50-80; a percentage increase in necrosis of 80-100. As to conditions: assessed 10 days after treatment; for pest or weed control at 12.5 g/ha / pest or weed control at 25 g/ha / pest or weed control at 50 g/ha / pest or weed control at 100 g/ha: Echinochloa crus-galli, post-emergence, 240 h, read-out: percentage increase in necrosis relative to the control. On the procedure: as §1

For another test, the system named is maize. As to the kind of experiment: Herbicidal screen, post-emergence spray of seedlings in pots: crop species. The note with it: assessed 10 days after treatment; for plant injury at 12.5 g/ha / plant injury at 25 g/ha / plant injury at 50 g/ha / plant injury at 100 g/ha: Zea mays, post-emergence, 240 h, read-out: percentage increase in necrosis relative to the control. More on the design: key to percentage increase in necrosis relative to the control: no detected effect at this concentration; a percentage increase in necrosis relative to the control of 0.1-50; b: a percentage increase in necrosis of 50-80; a percentage increase in necrosis of 80-100. On the procedure:
as §1

Another test relates to four weed species. Put plainly: Herbicidal screen, summary across the four weed species. As to conditions: summary in words, 12.5-100 g/ha. The procedure: as §1

For `Cl.Cn1c(C(F)(F)F)cc(=O)n(-c2cc(C(=O)NS(=O)(=O)C3CCNCC3)c(Cl)cc2F)c1=O` [Example 2, 2-Chloro-4-fluoro-5-(3-methyl-2,6-dioxo-4-(trifluoromethyl)-3,6-dihydropyrimidin-1(2H)-yl)-N-(piperidin-4-ylsulfonyl)benzamide hydrochloride], the pest or weed control at 12.5 g/ha was 50 to 80% in the test on Stellaria media (12.5 g/ha), 50 to 80% with Abutilon theophrasti (12.5 g/ha), 80 to 100% in the test with Amaranthus retroflexus (12.5 g/ha) and 0.1 to 50% in the test on Echinochloa crus-galli (12.5 g/ha). The pest or weed control at 25 g/ha with Stellaria media (25 g/ha) lay within 50 to 80%; in the test with Abutilon theophrasti it was 50 to 80%; with Amaranthus retroflexus (25 g/ha), 80 to 100%; in the test with Echinochloa crus-galli (25 g/ha), 50 to 80%. In addition, the pest or weed control at 50 g/ha lay within 50 to 80% in the test with Stellaria media (50 g/ha), 50 to 80% in the test with Abutilon theophrasti, 80 to 100% with Amaranthus retroflexus and 50 to 80% with Echinochloa crus-galli. The pest or weed control at 100 g/ha in the test with Stellaria media, in the test on Abutilon theophrasti, with Amaranthus retroflexus and in the test with Echinochloa crus-galli was 80 to 100% in each case. Also, the plant injury at 12.5 g/ha with maize (12.5 g/ha) was in the range of 0.1 to 50%. Further, the plant injury at 25 g/ha in the test with maize (25 g/ha) lay within 0.1 to 50%. Besides, the plant injury at 50 g/ha in the test with maize lay in the range of 50 to 80%. For the same compound, in the test on maize, the plant injury at 100 g/ha was 50 to 80%. Besides, in the test on four weed species, the “herbicidal activity against the weed species” value is “good activity across several of the weed species”.

For `CN1CCC(S(=O)(=O)NC(=O)c2cc(-n3c(=O)cc(C(F)(F)F)n(C)c3=O)c(F)cc2Cl)C1.Cl` (stereo not shown) [Example 5, 2-Chloro-4-fluoro-5-(3-methyl-2,6-dioxo-4-(trifluoromethyl)-3,6-dihydropyrimidin-1(2H)-yl)-N-((1-methylpyrrolidin-3-yl)sulfonyl)benzamide hydrochloride], the pest or weed control at 12.5 g/ha in the test with Stellaria media (12.5 g/ha) lay within 0.1 to 50%; with Abutilon theophrasti (12.5 g/ha) it was 0.1 to 50%; in the test with Amaranthus retroflexus (12.5 g/ha), 80 to 100%; in the test with Echinochloa crus-galli (12.5 g/ha), 0.1 to 50%. Also, the pest or weed control at 25 g/ha in the test on Stellaria media (25 g/ha) lay in the range of 0.1 to 50%; in the test with Abutilon theophrasti it was 50 to 80%; with Amaranthus retroflexus (25 g/ha) it was 80 to 100%; in the test with Echinochloa crus-galli (25 g/ha), 0.1 to 50%. The pest or weed control at 50 g/ha in the test with Stellaria media (50 g/ha) was 50 to 80%; in the test with Abutilon theophrasti, 80 to 100%; in the test on Amaranthus retroflexus, 80 to 100%; with Echinochloa crus-galli, 0.1 to 50%. Also, the pest or weed control at 100 g/ha was in the range of 50 to 80% with Stellaria media, 80 to 100% in the test on Abutilon theophrasti, 80 to 100% in the test with Amaranthus retroflexus and 50 to 80% in the test on Echinochloa crus-galli. The plant injury at 12.5 g/ha in the test on maize (12.5 g/ha) fell in the range of 0.1 to 50%. Moreover, the plant injury at 25 g/ha in the test on maize (25 g/ha) lay within 0.1 to 50%. For the same compound, the plant injury at 50 g/ha in the test on maize lay in the range of 0.1 to 50%. Also, in the test on maize, the plant injury at 100 g/ha was in the range of 0.1 to 50%. In addition, in the test on four weed species, the “herbicidal activity against the weed species” value is listed as “good activity across several of the weed species”.

In the case of `Cn1c(C(F)(F)F)cc(=O)n(-c2cc(C(=O)NS(=O)(=O)C3CC3)c(Cl)cc2F)c1=O` [Example 12, 2-Chloro-N-(cyclopropylsulfonyl)-4-fluoro-5-(3-methyl-2,6-dioxo-4-(trifluoromethyl)-3,6-dihydropyrimidin-1(2H)-yl)benzamide], the pest or weed control at 12.5 g/ha in the test on Stellaria media (12.5 g/ha) fell in the range of 0.1 to 50%; with Abutilon theophrasti (12.5 g/ha) it was 0.1 to 50%; in the test on Amaranthus retroflexus (12.5 g/ha), 50 to 80%; with Echinochloa crus-galli (12.5 g/ha), 0.1 to 50%. The pest or weed control at 25 g/ha with Stellaria media (25 g/ha) was in the range of 0.1 to 50%; in the test with Abutilon theophrasti it was 0.1 to 50%; with Amaranthus retroflexus (25 g/ha), 50 to 80%; with Echinochloa crus-galli (25 g/ha), 0.1 to 50%. The pest or weed control at 50 g/ha in the test on Stellaria media (50 g/ha) lay within 0.1 to 50%; with Abutilon theophrasti, 0.1 to 50%; in the test with Amaranthus retroflexus, 80 to 100%; in the test with Echinochloa crus-galli, 0.1 to 50%. The pest or weed control at 100 g/ha in the test on Stellaria media fell in the range of 0.1 to 50%; in the test with Abutilon theophrasti it was 50 to 80%; in the test on Amaranthus retroflexus, 80 to 100%; with Echinochloa crus-galli it was 0.1 to 50%. For the same compound, the plant injury at 12.5 g/ha in the test with maize (12.5 g/ha) was in the range of 0.1 to 50%. Besides, the plant injury at 25 g/ha in the test with maize (25 g/ha) lay within 0.1 to 50%. Moreover, the plant injury at 50 g/ha in the test on maize was 0.1 to 50%. Moreover, the plant injury at 100 g/ha in the test with maize fell in the range of 0.1 to 50%.

For `Cn1c(C(F)(F)F)cc(=O)n(-c2cc(C(=O)NS(=O)(=O)C3CC3)ccc2F)c1=O` [Example 15, N-(Cyclopropylsulfonyl)-4-fluoro-3-(3-methyl-2,6-dioxo-4-(trifluoromethyl)-3,6-dihydropyrimidin-1(2H)-yl)benzamide], the “percentage increase in necrosis relative to the control” value with Stellaria media (12.5 g/ha), in the test on Stellaria media (25 g/ha), in the test with Stellaria media (50 g/ha), in the test on Abutilon theophrasti (12.5 g/ha), with Amaranthus retroflexus (12.5 g/ha) and in the test with Amaranthus retroflexus (25 g/ha) was “d” in each case. Further, the “percentage increase in necrosis relative to the control” value with Echinochloa crus-galli (12.5 g/ha), in the test with Echinochloa crus-galli (25 g/ha), with maize (12.5 g/ha) and in the test on maize (25 g/ha) was “d” throughout. Moreover, the pest or weed control at 100 g/ha is 0.1 to 50% in the test on Stellaria media, 50 to 80% in the test with Abutilon theophrasti, 50 to 80% in the test with Amaranthus retroflexus and 0.1 to 50% with Echinochloa crus-galli. Moreover, the pest or weed control at 25 g/ha in the test with Abutilon theophrasti fell in the range of 0.1 to 50%. Further, the pest or weed control at 50 g/ha with Abutilon theophrasti was in the range of 50 to 80%; with Amaranthus retroflexus, 50 to 80%; in the test with Echinochloa crus-galli, 0.1 to 50%. Besides, the plant injury at 50 g/ha in the test with maize fell in the range of 0.1 to 50%. Further, the plant injury at 100 g/ha in the test on maize was in the range of 0.1 to 50%.

The values above are taken from patent US11634390B2, “Agricultural chemicals” (GLOBACHEM NV, priority 2016, dated 2023).
